Experimental data taken from patent US10053468B2, “Heterocyclic compound” (TAKEDA PHARMACEUTICAL COMPANY LIMITED, priority 2013, dated 2018).
Where two headings read alike, the source gives them in different places.

Experiments:
[1] = biological target: T1, RORγt (Homo sapiens, UniProt P51449); assay: RORγt binding test using fluorescent-labeled cholesterol (TR-FRET); conditions: read-out: Binding inhibitory rate of fluorescent-labeled cholesterol to RORγt at test compound 1 μM (%)
T1 sequence (P51449 1-497 isoform P51449-2): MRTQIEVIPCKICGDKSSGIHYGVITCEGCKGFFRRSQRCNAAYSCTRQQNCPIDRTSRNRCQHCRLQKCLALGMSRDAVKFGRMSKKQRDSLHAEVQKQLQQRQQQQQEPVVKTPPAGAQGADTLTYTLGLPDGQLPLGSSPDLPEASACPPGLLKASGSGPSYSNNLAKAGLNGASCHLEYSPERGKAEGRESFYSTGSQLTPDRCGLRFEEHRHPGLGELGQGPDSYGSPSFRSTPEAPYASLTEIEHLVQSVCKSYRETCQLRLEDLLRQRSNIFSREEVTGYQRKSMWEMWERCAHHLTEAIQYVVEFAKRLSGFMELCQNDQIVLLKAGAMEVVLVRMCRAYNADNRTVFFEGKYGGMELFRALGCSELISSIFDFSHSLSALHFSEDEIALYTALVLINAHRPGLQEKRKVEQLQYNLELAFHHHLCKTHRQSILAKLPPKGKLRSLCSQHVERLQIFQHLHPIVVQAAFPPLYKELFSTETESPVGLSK
In short: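 TR-FRET displacement with His-tagged RORγt, BODIPY-cholesterol and Tb-anti-His antibody in Tris-HCl pH 7.5, 100 mM NaCl, 1 mM DTT, 0.1% BSA. Compound, RORγt and labelled cholesterol were incubated 20 min at RT, then antibody was added for another 20 min.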

[2] = biological target: T1, RORγt; assay: Cofactor recruitment test (Alpha Screen, biotinylated SRC-1 peptide); assay type: biochemical; conditions: read-out: Signal value inhibitory rate at test compound 1 μM (%)
Experimental: Cofactor Recruitment Test
Cofactor recruitment test was performed by Alpha Screen (Histidine Detection Kit, PerkinElmer) method. First, a test compound was diluted with an assay buffer (50 mM Tris-HCl (pH 7.5), 50 mM KCl, 1 mM DTT, 0.1% BSA) and added to a 384 well plate by 5 μL. […] The mixture was stood in a dark place for 1 hr, and the signal value was measured by Envision (PerkinElmer).

[3] = biological target: T1, RORγt; assay: Jurkat reporter test (human IL-17 ROR response element luciferase, RORγt vector); assay type: cell-based; conditions: read-out: Luminescence level inhibitory rate at test compound 3 μM (%)
In short: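 Jurkat cells were electroporated (1350 V, 10 ms, 3 pulses) with reporter constructs, then cultured overnight with compound in RPMI containing 10% lipid-reduced FCS, 10 mM HEPES pH 7.5 and 5 μM lovastatin. Luciferase was quantified by Bright-Glo luminescence after 10 min at room temperature.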

[4] = biological target: T1, RORγt; assay: RORγt binding test using fluorescent-labeled synthetic ligand (TR-FRET); conditions: read-out: Binding inhibitory rate of fluorescent-labeled synthetic ligand to RORγt at test compound 1 μM (%)
In short: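 His-tagged RORγt (diluted to 240 nM) with compound, then fluorescent synthetic ligand (diluted to 12 μM), 20 min at room temperature, followed by Tb anti-His antibody (diluted to 8 nM), 20 min.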

[5] = test compound 3 μM, Jurkat cells

Row | Compound | inhibition at 1 µM [1] [%] | inhibition at 1 µM [2] [%] | inhibition at 3 µM ([3]; Jurkat) [%] | inhibition at 1 µM [4] [%] | inhibition at 3 µM [3, 5] [%]
1 | COCc1ccc2c(n1)CCN(C(=O)Cc1cc(O)no1)[C@H]2C(=O)Nc1cc(F)c([Si](C)(C)C)c(F)c1 [Example 138, (5R)-N-(3,5-difluoro-4-(trimethylsilyl)phenyl)-6-((3-hydroxy-1,2-oxazol-5-yl)acetyl)-2-(methoxymethyl)-5,6,7,8-tetrahydro-1,6-naphthyridine-5-carboxamide] | 102 | 100 | 104 | 101 | 
2 | CCOc1ccc2c(c1)CCN(C(=O)Cc1cc(O)no1)[C@H]2C(=O)Nc1cc(F)c(C(C)(C)COCCOC)c(F)c1 [Example 143, (1R)-N-(3,5-difluoro-4-(1-(2-methoxyethoxy)-2-methylpropan-2-yl)phenyl)-6-ethoxy-2-((3-hydroxy-1,2-oxazol-5-yl)acetyl)-1,2,3,4-tetrahydroisoquinoline-1-carboxamide] | 101 | 56 |  | 101 | 83
3 | CCOc1ccc2c(n1)CCN(C(=O)Cc1cc(O)no1)[C@H]2C(=O)Nc1cc(F)c2c(c1)CCC2(C)C [Example 147, (5R)-2-ethoxy-N-(7-fluoro-1,1-dimethyl-2,3-dihydro-1H-inden-5-yl)-6-((3-hydroxy-1,2-oxazol-5-yl)acetyl)-5,6,7,8-tetrahydro-1,6-naphthyridine-5-carboxamide] | 101 | 89 |  | 101 | 101
4 | CCOc1ccc2c(n1)CCN(C(=O)Cc1cc(O)no1)[C@H]2C(=O)Nc1ccc([Si](C)(C)C)c(F)c1 [Example 151, (5R)-2-ethoxy-N-(3-fluoro-4-(trimethylsilyl)phenyl)-6-((3-hydroxy-1,2-oxazol-5-yl)acetyl)-5,6,7,8-tetrahydro-1,6-naphthyridine-5-carboxamide] | 99 | 99 | 102 | 102 | 
5 | CCOc1ccc2c(n1)CCN(C(=O)CCCC(=O)O)[C@H]2C(=O)Nc1ccc([Si](C)(C)C)c(F)c1 [Example 152, 5-((5R)-2-ethoxy-5-((3-fluoro-4-(trimethylsilyl)phenyl)carbamoyl)-7,8-dihydro-1,6-naphthyridin-6(5H)-yl)-5-oxopentanoic acid] | 102 | 97 | 103 | 101 | 
6 | CCOc1ccc2c(c1)CCN(C(=O)CCCC(=O)O)[C@H]2C(=O)Nc1cc(F)c(C(C)(C)COCC(F)F)c(F)c1 [Example 153, 5-((1R)-1-((4-(1-(2,2-difluoroethoxy)-2-methylpropan-2-yl)-3,5-difluorophenyl)carbamoyl)-6-ethoxy-3,4-dihydroisoquinolin-2 (1H)-yl)-5-oxopentanoic acid] | 100 | 84 |  | 102 | 97
7 | CCOc1ccc2c(c1)CCN(C(=O)c1cc(O)no1)[C@H]2C(=O)Nc1cc(F)c(C(C)(C)COCC(F)F)c(F)c1 [Example 154, (1R)-N-(4-(1-(2,2-difluoroethoxy)-2-methylpropan-2-yl)-3,5-difluorophenyl)-6-ethoxy-2-((3-hydroxy-1,2-oxazol-5-yl)carbonyl)-1,2,3,4-tetrahydroisoquinoline-1-carboxamide] | 101 | 85 |  | 102 | 98
8 | CCOc1ccc2c(c1)CCN(C(=O)Cc1cc(O)no1)[C@H]2C(=O)Nc1cc(F)c(C(C)(C)COCC(F)F)c(F)c1 [Example 155, (1R)-N-(4-(1-(2,2-difluoroethoxy)-2-methylpropan-2-yl)-3,5-difluorophenyl)-6-ethoxy-2-((3-hydroxy-1,2-oxazol-5-yl)acetyl)-1,2,3,4-tetrahydroisoquinoline-1-carboxamide] | 101 | 84 |  | 101 | 99
9 | COc1ccc2c(c1)CCN(C(=O)Cc1cc(O)no1)[C@H]2C(=O)Nc1cc(F)c(C(C)(C)COCC2CC2)c(F)c1 [Example 157, (1R)-N-(4-(1-(cyclopropylmethoxy)-2-methylpropan-2-yl)-3,5-difluorophenyl)-2-((3-hydroxy-1,2-oxazol-5-yl)acetyl)-6-methoxy-1,2,3,4-tetrahydroisoquinoline-1-carboxamide] | 99 | 74 |  | 102 | 94
10 | COc1ccc2c(c1)CCN(C(=O)Cc1cc(O)no1)[C@H]2C(=O)Nc1cc(F)c(C(C)(C)COCC(F)F)c(F)c1 [Example 159, (1R)-N-(4-(1-(2,2-difluoroethoxy)-2-methylpropan-2-yl)-3,5-difluorophenyl)-2-((3-hydroxy-1,2-oxazol-5-yl)acetyl)-6-methoxy-1,2,3,4-tetrahydroisoquinoline-1-carboxamide] | 100 | 80 |  | 101 | 97
11 | CCOc1ccc2c(c1)CCN(C(=O)c1cc(O)no1)[C@H]2C(=O)Nc1cc(F)c(C(C)(C)COC)c(F)c1 [Example 163, (1R)-N-(3,5-difluoro-4-(1-methoxy-2-methylpropan-2-yl)phenyl)-6-ethoxy-2-((3-hydroxy-1,2-oxazol-5-yl)carbonyl)-1,2,3,4-tetrahydroisoquinoline-1-carboxamide] | 100 | 97 |  | 102 | 101
12 | CCOCC(C)(C)c1c(F)cc(NC(=O)[C@H]2c3ccc(OCC)cc3CCN2C(=O)CCCC(=O)O)cc1F [Example 166, 5-((1R)-6-ethoxy-1-((4-(1-ethoxy-2-methylpropan-2-yl)-3,5-difluorophenyl)carbamoyl)-3,4-dihydroisoquinolin-2(1H)-yl)-5-oxopentanoic acid] | 100 | 86 |  | 102 | 99
13 | CCOCC(C)(C)c1c(F)cc(NC(=O)[C@H]2c3ccc(OCC)cc3CCN2C(=O)c2cc(O)no2)cc1F [Example 167, (1R)-6-ethoxy-N-(4-(1-ethoxy-2-methylpropan-2-yl)-3,5-difluorophenyl)-2-((3-hydroxy-1,2-oxazol-5-yl)carbonyl)-1,2,3,4-tetrahydroisoquinoline-1-carboxamide] | 101 | 85 |  | 102 | 97
14 | COCc1ccc2c(c1)CCN(C(=O)Cc1cc(O)no1)[C@H]2C(=O)Nc1cc(F)c2c(c1)CCC2(C)C [Example 169, (1R)-N-(7-fluoro-1,1-dimethyl-2,3-dihydro-1H-inden-5-yl)-2-((3-hydroxy-1,2-oxazol-5-yl)acetyl)-6-(methoxymethyl)-1,2,3,4-tetrahydroisoquinoline-1-carboxamide] | 102 | 93 |  | 102 | 102
15 | CCOCC(C)(C)c1c(F)cc(NC(=O)[C@H]2c3ccc(OC)cc3CCN2C(=O)Cc2cc(O)no2)cc1F [Example 170, (1R)-N-(4-(1-ethoxy-2-methylpropan-2-yl)-3,5-difluorophenyl)-2-((3-hydroxy-1,2-oxazol-5-yl)acetyl)-6-methoxy-1,2,3,4-tetrahydroisoquinoline-1-carboxamide] | 102 | 81 |  | 102 | 97
16 | CCOCC(C)(C)c1c(F)cc(NC(=O)[C@H]2c3ccc(OC)cc3CCN2C(=O)c2cc(O)no2)cc1F [Example 171, (1R)-N-(4-(1-ethoxy-2-methylpropan-2-yl)-3,5-difluorophenyl)-2-((3-hydroxy-1,2-oxazol-5-yl)carbonyl)-6-methoxy-1,2,3,4-tetrahydroisoquinoline-1-carboxamide] | 100 | 82 |  | 101 | 96
